In US10035760B2, “Inhibitors of human immunodeficiency virus replication” (priority 2013, dated 2018) one finds EC50 data, which are given here for 33 molecules.

In this assay the test system is recombinant NL4-3 virus (Renilla luciferase) in MT-2 cells. In words: HIV cell culture assay (antiviral activity, luciferase readout in infected MT-2 cells). Particulars: Renilla. In kind it is cell-based. The gist of the method:
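EC50 derived via median-effect equation from luciferase activity in MT-2 cells after 4–5 day infection, compound serially diluted. Virus: recombinant NL4-3 with Renilla luciferase replacing part of nef, made in 293T cells.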

The mark [1] stands for this setting: NL43, read-out: Activity, antiviral activity class, recombinant NL4-3 Renilla luciferase virus in MT-2 cells.
Where [2] appears, read: NL43, recombinant NL4-3 Renilla luciferase virus in MT-2 cells.

Like-named read-outs stand apart in the source and are kept apart here. Bounds are passed on as bounds.

Regarding `Cc1ccccc1S(=O)(=O)NC(=O)N[C@@H](Cc1ccccc1)C(=O)N(C)c1ccc(OCC(N)=O)cc1` [Example 217, (S)—N-(4-(2-amino-2-oxoethoxy)phenyl)-N-methyl-3-phenyl-2-(3-(o-tolylsulfonyl)ureido)propanamide], under setting [1], the EC50 lay within 0.1 to 1 µM.
On to `Cc1ccccc1S(=O)(=O)NC(=O)N[C@@H](Cc1ccccc1)C(=O)N(C)c1ccccc1` [Example CA-67, (S)—N-methyl-N, 3-diphenyl-2-(3-(o-tolylsulfonyl)ureido)propanamide], for which the EC50 is 0.1 to 1 µM under setting [1] and 0.49 µM under setting [2].
In the case of `CCN(C(=O)[C@H](Cc1ccccc1)NC(=O)NS(=O)(=O)c1ccccc1C)c1ccccc1` [Example CA-68, (S)—N-ethyl-N, 3-diphenyl-2-(3-(o-tolylsulfonyl)ureido)propanamide], under setting [1], the EC50 was 0.1 to 1 µM.
As to `Cc1ccccc1N(C)C(=O)[C@H](Cc1ccccc1)NC(=O)NS(=O)(=O)c1ccccc1C` [Example CA-69, (S)—N-methyl-3-phenyl-N-(o-tolyl)-2-(3-(o-tolylsulfonyl)ureido)propanamide], the EC50 under setting [1] fell in the range of 1 to 10 µM.
In the case of `Cc1ccccc1S(=O)(=O)NC(=O)N[C@@H](Cc1ccccc1)C(=O)N(c1ccccc1)C(C)C` [Example CA-70, (S)—N-isopropyl-N, 3-diphenyl-2-(3-(o-tolylsulfonyl)ureido)propanamide], the EC50 under setting [1] is 0.1 to 1 µM.
Take `Cc1ccccc1S(=O)(=O)NC(=O)N[C@@H](Cc1ccccc1)C(=O)N(C)c1ccc2ncccc2c1` [Example CA-71, (S)—N-methyl-3-phenyl-N-(quinolin-6-yl)-2-(3-(o-tolylsulfonyl)ureido)propanamide]: under setting [1], the EC50 was below 0.1 µM.
Regarding `Cc1ccc2cc(N(C)C(=O)[C@H](Cc3ccccc3)NC(=O)NS(=O)(=O)c3ccccc3C)ccc2n1` [Example CA-72, (S)—N-methyl-N-(2-methylquinolin-6-yl)-3-phenyl-2-(3-(o-tolylsulfonyl)ureido)propanamide], the EC50 was below 0.1 µM under setting [1] and 0.03 µM under setting [2].
For the molecule `Cc1ccccc1S(=O)(=O)NC(=O)N[C@@H](Cc1ccccc1)C(=O)N(C)c1ccc2ncn(C)c2c1` [Example CA-73, (S)—N-methyl-N-(1-methyl-H-benzo[d]imidazol-6-yl)-3-phenyl-2-(3-(o-tolylsulfonyl)ureido)propanamide], under setting [1], the EC50 lay within 0.1 to 1 µM.
On to `CCn1c(C)nc2cc(N(C)C(=O)[C@H](Cc3ccccc3)NC(=O)NS(=O)(=O)c3ccccc3C)ccc21` [Example CA-74, (S)—N-(1-ethyl-2-methyl-1H-benzo[d]imidazol-5-yl)-N-methyl-3-phenyl-2-(3-(o-tolylsulfonyl)ureido)propanamide], for which the EC50 was 1 to 10 µM under setting [1] and 2.03 µM under setting [2].
For the molecule `Cc1ccccc1S(=O)(=O)NC(=O)N[C@@H](Cc1ccccc1)C(=O)N(C)c1ccc2nccnc2c1` [Example CA-75, (S)—N-methyl-3-phenyl-N-(quinoxalin-6-yl)-2-(3-(o-tolylsulfonyl)ureido)propanamide], the EC50 under setting [1] is 0.1 to 1 µM.
Take `Cc1ccccc1S(=O)(=O)NC(=O)N[C@@H](Cc1ccccc1)C(=O)N(C)c1ccc2c(c1)CCO2` [Example CA-76, (S)—N-(2,3-dihydrobenzofuran-5-yl)-N-methyl-3-phenyl-2-(3-(o-tolylsulfonyl)ureido)propanamide]: under setting [1], the EC50 was below 0.1 µM.
As for `COc1ccc(N(C)C(=O)[C@H](Cc2ccccc2)NC(=O)NS(=O)(=O)c2ccccc2C)cc1C` [Example CA-77, (S)—N-(4-methoxy-3-methylphenyl)-N-methyl-3-phenyl-2-(3-(o-tolylsulfonyl)ureido)propanamide], the EC50 under setting [1] was below 0.1 µM.
Take `CCN(C(=O)[C@H](Cc1ccccc1)NC(=O)NS(=O)(=O)c1ccccc1C)c1ccc(OC)c(C)c1` [Example CA-78, (S)—N-ethyl-N-(4-methoxy-3-methylphenyl)-3-phenyl-2-(3-(o-tolylsulfonyl)ureido)propanamide]: the EC50 is, setting by setting: under setting [1], 0.1 to 1 µM; under setting [2], 0.12 µM.
`Cc1ccccc1S(=O)(=O)NC(=O)N[C@@H](Cc1ccccc1)C(=O)N(C)c1ccc2c(c1)CCCO2` [Example CA-79, (S)—N-(chroman-6-yl)-N-methyl-3-phenyl-2-(3-(o-tolylsulfonyl)ureido)propanamide]: the EC50 under setting [1] is below 0.1 µM.
As for `CCN(C(=O)[C@H](Cc1ccccc1)NC(=O)NS(=O)(=O)c1ccccc1C)c1ccc2ncccc2c1` [Example CA-80, (S)—N-ethyl-3-phenyl-N-(quinolin-6-yl)-2-(3-(o-tolylsulfonyl)ureido)propanamide], the EC50 was below 0.1 µM under setting [1] and 0.03 µM under setting [2].
With `CCN(C(=O)[C@H](Cc1ccccc1)NC(=O)NS(=O)(=O)c1ccccc1C)c1ccc2c(c1)CCCO2` [Example CA-81, (S)—N-(chroman-6-yl)-N-ethyl-3-phenyl-2-(3-(o-tolylsulfonyl)ureido)propanamide], the EC50 under setting [1] is below 0.1 µM and the EC50 under setting [2] was 0.04 µM.
In the case of `Cc1ccc(N(C)C(=O)[C@H](Cc2ccccc2)NC(=O)NS(=O)(=O)c2ccccc2C)cc1` [Example CA-82, (S)—N-methyl-3-phenyl-N-(p-tolyl)-2-(3-(o-tolylsulfonyl)ureido)propanamide], the EC50 under setting [1] lay in the range of 0.1 to 1 µM.
As for `CCN(C(=O)[C@H](Cc1ccccc1)NC(=O)NS(=O)(=O)c1ccccc1C)c1ccc2nc(C)ccc2c1` [Example CA-83, (S)—N-ethyl-N-(2-methylquinolin-6-yl)-3-phenyl-2-(3-(o-tolylsulfonyl)ureido)propanamide], the EC50 under setting [1] is below 0.1 µM.
As to `CCOc1ccc(N(C)C(=O)[C@H](Cc2ccccc2)NC(=O)NS(=O)(=O)c2ccccc2C)cc1` [Example CA-84, (S)—N-(4-ethoxyphenyl)-N-methyl-3-phenyl-2-(3-(o-tolylsulfonyl)ureido)propanamide], the EC50 under setting [1] is below 0.1 µM.
Regarding `CC(=O)Nc1ccc(N(C)C(=O)[C@H](Cc2ccccc2)NC(=O)NS(=O)(=O)c2ccccc2C)cc1O` [Example CA-85, (S)—N-(4-acetamido-3-hydroxyphenyl)-N-methyl-3-phenyl-2-(3-(o-tolylsulfonyl)ureido)propanamide], under setting [1], the EC50 was 1 to 10 µM.
In the case of `Cc1nc2ccc(N(C)C(=O)[C@H](Cc3ccccc3)NC(=O)NS(=O)(=O)c3ccccc3C)cc2o1` [Example CA-86, (S)—N-methyl-N-(2-methylbenzo[d]oxazol-6-yl)-3-phenyl-2-(3-(o-tolylsulfonyl)ureido)propanamide], under setting [1], the EC50 was below 0.1 µM.
On to `Cc1nc2cc(N(C)C(=O)[C@H](Cc3ccccc3)NC(=O)NS(=O)(=O)c3ccccc3C)ccc2s1` [Example CA-87, (S)—N-methyl-N-(2-methylbenzo[d]thiazol-5-yl)-3-phenyl-2-(3-(o-tolylsulfonyl)ureido)propanamide], for which the EC50 under setting [1] lay in the range of 0.1 to 1 µM.
As for `Cc1ccccc1S(=O)(=O)NC(=O)N[C@@H](Cc1ccccc1)C(=O)N(C)c1ccc2scnc2c1` [Example CA-88, (S)—N-(benzo[d]thiazol-5-yl)-N-methyl-3-phenyl-2-(3-(o-tolylsulfonyl)ureido)propanamide], the EC50 is, setting by setting: under setting [1], below 0.1 µM; under setting [2], 0.06 µM.
For `CCN(C(=O)[C@H](Cc1ccccc1)NC(=O)NS(=O)(=O)c1ccccc1C)c1ccc(O)c(NC=O)c1` [Example CA-89, (S)—N-ethyl-N-(3-formamido-4-hydroxyphenyl)-3-phenyl-2-(3-(o-tolylsulfonyl)ureido)propanamide], in that order: 0.1 to 1 µM and 0.6 µM.
As for `Cc1ccccc1S(=O)(=O)NC(=O)N[C@@H](Cc1ccccc1)C(=O)N(C)c1ccc(O)c(NC=O)c1` [Example CA-90, (S)—N-(3-formamido-4-hydroxyphenyl)-N-methyl-3-phenyl-2-(3-(o-tolylsulfonyl)ureido)propanamide], the EC50 under setting [1] fell in the range of 1 to 10 µM.
For `Cc1ccccc1S(=O)(=O)NC(=O)N[C@@H](Cc1ccccc1)C(=O)N(C)c1cccc(C#N)c1` [Example CA-91, (S)—N-(3-cyanophenyl)-N-methyl-3-phenyl-2-(3-(o-tolylsulfonyl)ureido)propanamide], under setting [1], the EC50 fell in the range of 0.1 to 1 µM.
As for `Cc1ccccc1S(=O)(=O)NC(=O)N[C@@H](Cc1ccccc1)C(=O)N(C)c1ccc(NC(=O)N(C)C)cc1` [Example CA-92, (S)—N-(4-(3,3-dimethylureido)phenyl)-N-methyl-3-phenyl-2-(3-(o-tolylsulfonyl)ureido)propanamide], the EC50 under setting [1] was 1 to 10 µM.
In the case of `COC(=O)Nc1ccc(N(C)C(=O)[C@H](Cc2ccccc2)NC(=O)NS(=O)(=O)c2ccccc2C)cc1` [Example CA-93, (S)-methyl (4-(N-methyl-3-phenyl-2-(3-(o-tolylsulfonyl)ureido)propanamido)phenyl)carbamate], under setting [1], the EC50 is below 0.1 µM.
`Cc1ccccc1S(=O)(=O)NC(=O)N[C@@H](Cc1ccccc1)C(=O)N(C)c1cccc(C(N)=O)c1` [Example CA-94, (S)-3-(N-methyl-3-phenyl-2-(3-(o-tolylsulfonyl)ureido)propanamido)benzamide]: the EC50 is 1 to 10 µM under setting [1] and 3.26 µM under setting [2].
As to `Cc1ccccc1S(=O)(=O)NC(=O)N[C@@H](Cc1ccccc1)C(=O)N(C)c1ccc2ncsc2c1` [Example CA-95, (S)—N-(benzo[d]thiazol-6-yl)-N-methyl-3-phenyl-2-(3-(o-tolylsulfonyl)ureido)propanamide], under setting [1], the EC50 was below 0.1 µM.
The same measure, in the same setting: under `Cc1ccccc1S(=O)(=O)NC(=O)N[C@@H](Cc1ccccc1)C(=O)N(C)c1ccc2ncncc2c1` [Example CA-96, (S)—N-methyl-3-phenyl-N-(quinazolin-6-yl)-2-(3-(o-tolylsulfonyl)ureido)propanamide] stands 0.1 to 1 µM; under `Cc1ccccc1S(=O)(=O)NC(=O)N[C@@H](Cc1ccccc1)C(=O)N(C)c1ccc(C#N)cc1` [Example CA-97, (S)—N-(4-cyanophenyl)-N-methyl-3-phenyl-2-(3-(o-tolylsulfonyl)ureido)propanamide], 0.1 to 1 µM.
Regarding `Cc1ccccc1S(=O)(=O)NC(=O)N[C@@H](Cc1ccccc1)C(=O)N(C)c1ccc2cccnc2c1` [Example CA-98, (S)—N-methyl-3-phenyl-N-(quinolin-7-yl)-2-(3-(o-tolylsulfonyl)ureido)propanamide], the EC50 by setting is: under setting [1], 0.1 to 1 µM; under setting [2], 0.12 µM.
